The text below walks through data of patent US8969343B2, “Histone demethylase inhibitors” (priority 2012, dated 2015).

Molecules are shown by their SMILES. Counter-ions that a name gives are not always drawn. Like-named read-outs stand apart in the source and are kept apart here. A value given as a limit tells only on which side of the number the result lay.

In one experiment the target is T1, Jarid1A (Homo sapiens, UniProt P29375).
T1 construct: purchased BPS Bioscience 50110
T1 sequence (P29375 1-1090): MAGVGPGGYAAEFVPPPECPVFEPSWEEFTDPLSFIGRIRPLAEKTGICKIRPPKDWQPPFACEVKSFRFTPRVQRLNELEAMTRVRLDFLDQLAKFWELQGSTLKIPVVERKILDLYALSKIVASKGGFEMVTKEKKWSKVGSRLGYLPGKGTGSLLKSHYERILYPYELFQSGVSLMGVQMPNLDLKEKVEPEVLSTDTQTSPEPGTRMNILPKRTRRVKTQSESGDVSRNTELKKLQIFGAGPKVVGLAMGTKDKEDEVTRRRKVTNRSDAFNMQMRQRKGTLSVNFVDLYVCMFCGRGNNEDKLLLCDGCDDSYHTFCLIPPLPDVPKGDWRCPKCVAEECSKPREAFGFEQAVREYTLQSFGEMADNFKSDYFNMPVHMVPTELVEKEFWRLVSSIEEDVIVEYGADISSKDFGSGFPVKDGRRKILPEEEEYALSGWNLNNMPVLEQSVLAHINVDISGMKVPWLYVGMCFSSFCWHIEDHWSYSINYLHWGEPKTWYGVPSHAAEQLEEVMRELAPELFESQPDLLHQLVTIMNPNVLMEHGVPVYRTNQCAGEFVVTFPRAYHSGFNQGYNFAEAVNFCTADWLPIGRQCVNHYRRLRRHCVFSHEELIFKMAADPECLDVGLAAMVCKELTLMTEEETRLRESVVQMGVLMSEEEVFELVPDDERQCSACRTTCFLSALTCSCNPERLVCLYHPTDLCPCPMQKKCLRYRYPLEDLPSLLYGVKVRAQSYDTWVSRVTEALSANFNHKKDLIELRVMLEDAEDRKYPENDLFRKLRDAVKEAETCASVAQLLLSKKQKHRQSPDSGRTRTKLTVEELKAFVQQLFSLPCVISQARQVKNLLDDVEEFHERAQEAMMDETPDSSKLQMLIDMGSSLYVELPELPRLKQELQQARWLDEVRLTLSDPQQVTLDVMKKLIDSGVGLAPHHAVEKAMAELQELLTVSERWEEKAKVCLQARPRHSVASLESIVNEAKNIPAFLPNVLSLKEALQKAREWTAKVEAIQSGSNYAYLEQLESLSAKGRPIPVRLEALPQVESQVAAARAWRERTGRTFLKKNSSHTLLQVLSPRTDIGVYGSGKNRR
Briefly: Jarid1A in vitro enzyme inhibition assay (TR-FRET). The experiment is classed as biochemical. As for the experimental part:
(§1) This assay determines the ability of a test compound to inhibit Jarid1A, Jarid1B, and JMJD2C demethylase activity.
The enzymatic assay of Jarid1A activity is based upon Time Resolved-Fluorescence Resonance Energy Transfer (TR-FRET) detection. […] The assay reaction was initiated by the following: 2 μl of the mixture of 900 nM H3K4me3-biotin labeled peptide and 6 μM alpha-ketoglutaric acid with 2 μl of 11-point serial diluted inhibitor in 3% DMSO was added to each well of plate, followed by the addition of 2 μl of 3 nM Jarid1A to initiate the reaction. The reaction mixture was incubated at room temperature for 30 minutes, and terminated by the addition of 6 μl of 5 mM EDTA in LANCE detection buffer containing 50 nM Phycolink Streptavidin-allophycocyanin and 2 nM Europium-anti-H3K4me1-2 antibody.
(In general: In TR-FRET formats the signal depends on donor and acceptor labels being close together.)

The next experiment has as its target T2, Jarid1B (Homo sapiens, UniProt Q9UGL1).
T2 sequence (Q9UGL1 2-751): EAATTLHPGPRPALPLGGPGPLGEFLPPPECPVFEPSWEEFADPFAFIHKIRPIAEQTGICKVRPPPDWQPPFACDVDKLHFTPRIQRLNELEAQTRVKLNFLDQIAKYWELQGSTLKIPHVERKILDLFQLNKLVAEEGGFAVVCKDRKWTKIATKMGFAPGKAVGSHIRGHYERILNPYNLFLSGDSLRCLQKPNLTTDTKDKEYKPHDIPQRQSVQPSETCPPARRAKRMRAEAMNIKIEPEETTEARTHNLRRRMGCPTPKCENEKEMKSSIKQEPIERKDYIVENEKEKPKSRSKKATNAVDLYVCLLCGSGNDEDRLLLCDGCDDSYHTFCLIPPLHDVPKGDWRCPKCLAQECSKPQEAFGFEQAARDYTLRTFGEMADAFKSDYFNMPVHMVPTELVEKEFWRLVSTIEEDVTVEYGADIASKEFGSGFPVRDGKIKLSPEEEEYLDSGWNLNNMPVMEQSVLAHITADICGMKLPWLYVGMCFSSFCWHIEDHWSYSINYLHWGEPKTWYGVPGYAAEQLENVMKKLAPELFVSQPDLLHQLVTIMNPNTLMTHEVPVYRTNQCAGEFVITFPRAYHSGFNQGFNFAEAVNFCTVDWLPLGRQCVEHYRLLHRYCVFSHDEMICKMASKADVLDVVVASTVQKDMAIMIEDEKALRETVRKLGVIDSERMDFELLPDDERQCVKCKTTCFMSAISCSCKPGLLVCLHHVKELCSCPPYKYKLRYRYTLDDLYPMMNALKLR
Description: Jarid1B in vitro enzyme inhibition assay (TR-FRET). The experiment is classed as biochemical. As to conditions: 0.8 nM Jarid1B, 300 nM H3K4me3-biotin peptide, 2 μM alpha-ketoglutaric acid. As for the experimental part:
as §1
The reaction mixture was incubated at room temperature for 30 minutes, and terminated by the addition of 6 μl of 5 mM EDTA in LANCE detection buffer containing 50 nM Phycolink Streptavidin-allophycocyanin and 2 nM Europium-anti-H3K4me1-2 antibody.

The target of another experiment is T3, JMJD2C (Homo sapiens, UniProt Q9H3R0).
T3 sequence (Q9H3R0 2-372): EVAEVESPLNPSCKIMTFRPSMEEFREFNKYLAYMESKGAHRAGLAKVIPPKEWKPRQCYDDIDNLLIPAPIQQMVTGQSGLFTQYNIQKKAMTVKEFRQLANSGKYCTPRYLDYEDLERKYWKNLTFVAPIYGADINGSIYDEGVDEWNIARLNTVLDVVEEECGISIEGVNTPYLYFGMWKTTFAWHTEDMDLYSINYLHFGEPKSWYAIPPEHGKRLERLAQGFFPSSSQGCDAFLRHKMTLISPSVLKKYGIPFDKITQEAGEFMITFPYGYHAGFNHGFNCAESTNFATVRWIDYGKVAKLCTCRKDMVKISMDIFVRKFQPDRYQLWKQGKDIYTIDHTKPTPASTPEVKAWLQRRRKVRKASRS
Briefly: JMJD2C in vitro enzyme inhibition assay (TR-FRET). The format is biochemical. As to conditions: 0.3 nM JMJD2C, 300 nM H3K9me3-biotin peptide, 2 μM alpha-ketoglutaric acid. As for the experimental part:
as §1
Reaction product was determined quantitatively by TR-FRET after the addition of detection reagent Phycolink Streptavidin-allophycocyanin (Prozyme) and Europium-anti-di-methylated histone H3 lysine 9 (H3K9me2) antibody (PerkinElmer) in the presence of 5 mM EDTA in LANCE detection buffer (PerkinElmer) at a final concentration of 50 nM and 1 nM, respectively.
The assay reaction was initiated by the following: 2 μl of the mixture of 900 nM H3K9me3-biotin labeled peptide and 6 μM alpha-ketoglutaric acid with 2 μl of 11-point serial diluted inhibitor in 3% DMSO were added to each well of the plate, followed by the addition of 2 μl of 0.9 nM JMJD2C to initiate the reaction. The reaction mixture was incubated at room temperature for 30 minutes, and terminated by the addition of 6 μl of 5 mM EDTA in LANCE detection buffer containing 100 nM Phycolink Streptavidin-allophycocyanin and 2 nM Europium-anti-H3K9me2 antibody.

A further experiment relates to KDM5A/B. Description: In vitro cell-based assay: tri-methyl H3K4 immuno-blotting in ZR-75-1 breast cancer cells. As to conditions: 72 hours, tri-methyl H3K4, relative IC50, read-out: Cellular IC50. As for the experimental part:
This quantitative immuno-blotting assay measures the amount tri-methylated histone H3 at amino acid Lysine number 4, a specific substrate […] of the direct enzymatic activity of the histone demethylases KDM5A and KDM5B from extracts of the ZR-75-1 breast cancer cell line.
This assay is a fluorometric immunoassay for the quantification of tri-methyl H3K4 extracted from cells treated with test compound and is used as a measure of the cellular inhibition of KDM5A/B.
Extracts were prepared containing all of the cellular histone material using detergent based lysis and sonication methods. These lysates were subsequently normalized for total protein content using a colorimetric bicinchonic acid assay (MicroBCA Pierce/Thermo Scientific). Normalized cell extracts were then subjected to typical immuno-blotting procedures using NuPage reagents (Life Technologies). […] The amount of tri-methylated lysine 4 of histone H3 was detected using an antibody specific to the tri-methylated state (Cell Signaling Technologies) and quantified on an infrared imager using a densitometry software package (Odyssey CLx, Image Studio, Li-Cor). This background subtracted densitometry value was reported as a ration of the GAPDH amount for that sample and then calculated as a percent of the DMSO treated sample. […]

The mark [1] stands for this setting: 1 nM Jarid1A, 300 nM H3K4me3-biotin peptide, 2 μM alpha-ketoglutaric acid.

For the compound `Cn1nc2ccccc2c1Nc1cnccc1C(=O)O` [Example 2, 3-[(2-methyl-2H-indazol-3-yl)amino]pyridine-4-carboxylic acid], the IC50 (usually the concentration needed to halve the response being measured) on Jarid1A (setting [1]) was in the range of 1 to 10 µM; on Jarid1B, 1 to 10 µM; against JMJD2C it was 0.1 to 1 µM.

Take `CN(C)CCCCCn1nc(Nc2cnccc2C(=O)O)c2cc(F)ccc21` [Example 22]: the IC50 at Jarid1A was under 0.1 µM; against Jarid1B, under 0.1 µM; on JMJD2C, 0.1 to 1 µM.

In the case of `O=C(O)c1ccncc1Nc1nn(Cc2ccccc2)c2ccc(F)cc12` [Example 24, 3-[(1-benzyl-5-fluoro-1H-indazol-3-yl)amino]pyridine-4-carboxylic acid], the IC50 against Jarid1A (setting [1]) is under 0.1 µM; at Jarid1B, under 0.1 µM; against JMJD2C it was 0.1 to 1 µM; in the experiment on KDM5A/B, over 10 µM.

As for `CNCCCCCn1nc(Nc2cnccc2C(=O)O)c2cc(F)ccc21` [Example 46, 3-({5-fluoro-1-[5-(methylamino)pentyl]-1H-indazol-3-yl}amino)pyridine-4-carboxylic acid, trifluoroacetic acid salt], the IC50 on Jarid1A (setting [1]), on Jarid1B and on JMJD2C was under 0.1 µM in each case.

On to `CN(C)CC#CCn1nc(Nc2cnccc2C(=O)O)c2cc(F)ccc21` [Example 49, 3-({1-[4-(dimethylamino)but-2-yn-1-yl]-5-fluoro-1H-indazol-3-yl}amino)pyridine-4-carboxylic acid, trifluoroacetic acid salt], for which the IC50 against Jarid1A (setting [1]), on Jarid1B and against JMJD2C was under 0.1 µM each time.

Turning to `O=C(O)c1ccncc1Nc1nn(C2CCC(F)(F)CC2)c2ccc(F)cc12` [Example 64, 3-{[1-(4,4-difluorocyclohexyl)-5-fluoro-1H-indazol-3-yl]amino}pyridine-4-carboxylic acid], the IC50 on Jarid1A (setting [1]), against Jarid1B and on JMJD2C was 1 to 10 µM throughout.

`O=C(O)c1ccncc1Nc1nn(C2CCOC2)c2ccc(Cl)cc12` (centres unmarked) [Example 69, 3-{[5-chloro-1-(tetrahydrofuran-3-yl)-1H-indazol-3-yl]amino}pyridine-4-carboxylic acid] returned an IC50 at JMJD2C of 0.1 to 1 µM.

`N#CNC(=O)c1ccncc1Nc1nn([C@H]2CCOC2)c2ccc(F)cc12` [Example 70, N-cyano-3-({5-fluoro-1-[(3S)-tetrahydrofuran-3-yl]-1H-indazol-3-yl}amino)pyridine-4-carboxamide] registered an IC50 at JMJD2C of 1 to 10 µM.

As for `N#CNC(=O)c1ccncc1Nc1nn(CCN2CCC(F)(F)C2)c2ccc(F)cc12` [Example 72, N-cyano-3-({1-[2-(3,3-difluoropyrrolidin-1 yl)ethyl]-5-fluoro-1H-indazol-3-yl}amino)pyridine-4-carboxamide], the IC50 on JMJD2C is 1 to 10 µM.

Regarding `N#CNC(=O)c1ccncc1Nc1nn(CCN2CCC(F)(F)CC2)c2ccc(F)cc12` [Example 74, N-cyano-3-({1-[2-(4,4-difluoropiperidin-1 yl)ethyl]-5-fluoro-1H-indazol-3-yl}amino)pyridine-4-carboxamide], the IC50 at JMJD2C is 1 to 10 µM.

As to `CC(C)Cn1nc(Nc2cnccc2C(=O)NC#N)c2cc(F)ccc21` [Example 75, N-cyano-3-{[5-fluoro-1-(2-methylpropyl)-1H-indazol-3-yl]amino}pyridine-4-carboxamide], at JMJD2C, the IC50 was in the range of 1 to 10 µM.

At JMJD2C, `CN(C)CCCCn1nc(Nc2cnccc2C(=O)NC#N)c2cc(F)ccc21` [Example 76, N-cyano-3-({1-[4-(dimethylamino)butyl]-5-fluoro-1H-indazol-3-yl}amino)pyridine-4-carboxamide] showed an IC50 of 0.1 to 1 µM.

`N#CNC(=O)c1ccncc1Nc1nn(CCN2CCCC2)c2ccc(Cl)cc12` [Example 79, N-cyano-3-({5-chloro-1-[2-(pyrrolidin-1-yl)ethyl]-1H-indazol-3-yl}amino)pyridine-4-carboxamide] had an IC50 on JMJD2C of 0.1 to 1 µM.
